Measured values: US20260232767A1, “INTERLEUKIN-23 RECEPTOR ANTAGONIST PEPTIDES FOR USE IN THE TREATMENT OF PSORIASIS” (Janssen Pharmaceutica NV, priority 2023, published 2026)

System: subjects with moderate-to-severe plaque psoriasis
Assay: PASI response, Example 2 long-term extension to Week 52
Format: in vivo, human
Excerpt: Described below is a multicenter, long-term extension (LTE), double-blind, dose-ranging, parallel group interventional study in participants from Example 1 to evaluate the long-term efficacy and safety of the hydrochloride salt of the compound of Formula (I) for the treatment of moderate-to-severe plaque psoriasis. Patients from Example 1 continued to receive the same dose of the compound of Formula (I) for an additional 36-week treatment period with a 4-week safety follow up period after the last administration of the compound of Formula (I). Patients randomized to placebo in Example 1 received the compound of Formula (I) at a dose of 100 mg QD starting at Week 16 of Example 1 (FIG. 21).
The primary efficacy endpoint is the proportion of participants achieving a PASI 75 response at Week 52, defined as at least a […] reduction from baseline PASI of Example 1. For primary analysis, composite strategy (non-responder imputation) was applied to address intercurrent event #1 (Discontinuation of study intervention due to lack of efficacy or due to an AE of worsening of psoriasis) and […] (initiation of a protocol-prohibited medication or therapy that could improve psoriasis); treatment policy strategy (observed data) was applied to intercurrent event #3 (Discontinuation of study intervention due to other reasons). Participants with missing data after application of ICEs are considered as non-responders.
Since there was no control arm (after week 16), in this primary analysis, only the proportion of participants who achieved a PASI75 response and its […] confidence interval at Week 52 were summarized for each intervention group.

[1] = Week 20, Placebo → 100 mg QD, N=35
[2] = Week 24, Placebo → 100 mg QD, N=35
[3] = Week 28, Placebo → 100 mg QD, N=35
[4] = Week 32, Placebo → 100 mg QD, N=35
[5] = Week 40, Placebo → 100 mg QD, N=35
[6] = Week 52, Placebo → 100 mg QD, N=35

CC(=O)NCCCC[C@@H]1NC(=O)[C@H](Cc2c[nH]c3c(C)cccc23)NC(=O)[C@H]([C@@H](C)O)NC(=O)[C@H](CC(N)=O)NC(=O)[C@@H](NC(C)=O)C(C)(C)SSC(C)(C)[C@@H](C(=O)N[C@@H](Cc2ccc(OCCN)cc2)C(=O)N[C@@H](Cc2ccc3ccccc3c2)C(=O)NC2(C(=O)N[C@@H](CCC(=O)O)C(=O)N[C@@H](CC(N)=O)C(=O)N[C@@H](Cc3cccnc3)C(=O)N(C)CC(N)=O)CCOCC2)NC1=O [IL-23 receptor antagonist peptide, Ac-[Pen]*-N-T-[W(7-Me)]-[Lys(Ac)]-[Pen]*-Phe[4-(2-aminoethoxy)]-[2-Nal]-[THP]-E-N-[3-Pal]-Sarc-NH2 (*[Pen]-[Pen]* formdisulfidebond)]
PASI ≥90% Improvement, subjects (%) (Week 20, 100 mg BID, N=42): (61.9%)
PASI 100% Improvement, subjects (%) (Week 20, 100 mg QD, N=43): (14.0%)
PASI ≥75% Improvement, subjects (%) (Week 20, 100 mg QD, N=43): (60.5%)
PASI ≥90% Improvement, subjects (%) (Week 20, 100 mg QD, N=43): (44.2%)
PASI 100% Improvement, subjects (%) [1]: (2.9%)
PASI ≥75% Improvement, subjects (%) [1]: (40.0%)
PASI ≥90% Improvement, subjects (%) [1]: (14.3%)
PASI 100% Improvement, subjects (%) (Week 24, 25 mg BID, N=41): (19.5%)
PASI ≥75% Improvement, subjects (%) (Week 24, 25 mg BID, N=41): (61.0%)
PASI ≥90% Improvement, subjects (%) (Week 24, 25 mg BID, N=41): (29.3%)
PASI 100% Improvement, subjects (%) (Week 24, 25 mg QD, N=43): (16.3%)
PASI ≥75% Improvement, subjects (%) (Week 24, 25 mg QD, N=43): (46.5%)
PASI ≥90% Improvement, subjects (%) (Week 24, 25 mg QD, N=43): (32.6%)
PASI 100% Improvement, subjects (%) (Week 24, 50 mg QD, N=43): (27.9%)
PASI ≥75% Improvement, subjects (%) (Week 24, 50 mg QD, N=43): (60.5%)
PASI ≥90% Improvement, subjects (%) (Week 24, 50 mg QD, N=43): (53.5%)
PASI 100% Improvement, subjects (%) (Week 24, 100 mg BID, N=42): (35.7%)
PASI ≥75% Improvement, subjects (%) (Week 24, 100 mg BID, N=42): (81.0%)
PASI ≥90% Improvement, subjects (%) (Week 24, 100 mg BID, N=42): (69.0%)
PASI 100% Improvement, subjects (%) (Week 24, 100 mg QD, N=43): (20.9%)
PASI ≥75% Improvement, subjects (%) (Week 24, 100 mg QD, N=43): (69.8%)
PASI ≥90% Improvement, subjects (%) (Week 24, 100 mg QD, N=43): (55.8%)
PASI 100% Improvement, subjects (%) [2]: (8.6%)
PASI ≥75% Improvement, subjects (%) [2]: (60.0%)
PASI ≥90% Improvement, subjects (%) [2]: (22.9%)
PASI 100% Improvement, subjects (%) (Week 28, 25 mg BID, N=41): (17.1%)
PASI ≥75% Improvement, subjects (%) (Week 28, 25 mg BID, N=41): (61.0%)
PASI ≥90% Improvement, subjects (%) (Week 28, 25 mg BID, N=41): (36.6%)
PASI 100% Improvement, subjects (%) (Week 28, 25 mg QD, N=43): (18.6%)
PASI ≥75% Improvement, subjects (%) (Week 28, 25 mg QD, N=43): (39.5%)
PASI ≥90% Improvement, subjects (%) (Week 28, 25 mg QD, N=43): (27.9%)
PASI 100% Improvement, subjects (%) (Week 28, 50 mg QD, N=43): (14.0%)
PASI ≥75% Improvement, subjects (%) (Week 28, 50 mg QD, N=43): (69.8%)
PASI ≥90% Improvement, subjects (%) (Week 28, 50 mg QD, N=43): (48.8%)
PASI 100% Improvement, subjects (%) (Week 28, 100 mg BID, N=42): (38.1%)
PASI ≥75% Improvement, subjects (%) (Week 28, 100 mg BID, N=42): (78.6%)
PASI ≥90% Improvement, subjects (%) (Week 28, 100 mg BID, N=42): (61.9%)
PASI 100% Improvement, subjects (%) (Week 28, 100 mg QD, N=43): (25.6%)
PASI ≥75% Improvement, subjects (%) (Week 28, 100 mg QD, N=43): (65.1%)
PASI ≥90% Improvement, subjects (%) (Week 28, 100 mg QD, N=43): (51.2%)
PASI 100% Improvement, subjects (%) [3]: (14.3%)
PASI ≥75% Improvement, subjects (%) [3]: (62.9%)
PASI ≥90% Improvement, subjects (%) [3]: (22.9%)
PASI 100% Improvement, subjects (%) (Week 32, 25 mg BID, N=41): (17.1%)
PASI ≥75% Improvement, subjects (%) (Week 32, 25 mg BID, N=41): (53.7%)
PASI ≥90% Improvement, subjects (%) (Week 32, 25 mg BID, N=41): (39.0%)
PASI 100% Improvement, subjects (%) (Week 32, 25 mg QD, N=43): (18.6%)
PASI ≥75% Improvement, subjects (%) (Week 32, 25 mg QD, N=43): (48.8%)
PASI ≥90% Improvement, subjects (%) (Week 32, 25 mg QD, N=43): (30.2%)
PASI 100% Improvement, subjects (%) (Week 32, 50 mg QD, N=43): (25.6%)
PASI ≥75% Improvement, subjects (%) (Week 32, 50 mg QD, N=43): (65.1%)
PASI ≥90% Improvement, subjects (%) (Week 32, 50 mg QD, N=43): (51.2%)
PASI 100% Improvement, subjects (%) (Week 32, 100 mg BID, N=42): (33.3%)
PASI ≥75% Improvement, subjects (%) (Week 32, 100 mg BID, N=42): (78.6%)
PASI ≥90% Improvement, subjects (%) (Week 32, 100 mg BID, N=42): (66.7%)
PASI 100% Improvement, subjects (%) (Week 32, 100 mg QD, N=43): (25.6%)
PASI ≥75% Improvement, subjects (%) (Week 32, 100 mg QD, N=43): (69.8%)
PASI ≥90% Improvement, subjects (%) (Week 32, 100 mg QD, N=43): (62.8%)
PASI 100% Improvement, subjects (%) [4]: (20.0%)
PASI ≥75% Improvement, subjects (%) [4]: (65.7%)
PASI ≥90% Improvement, subjects (%) [4]: (40.0%)
PASI 100% Improvement, subjects (%) (Week 40, 25 mg BID, N=41): (14.6%)
PASI ≥75% Improvement, subjects (%) (Week 40, 25 mg BID, N=41): (53.7%)
PASI ≥90% Improvement, subjects (%) (Week 40, 25 mg BID, N=41): (31.7%)
PASI 100% Improvement, subjects (%) (Week 40, 25 mg QD, N=43): (11.6%)
PASI ≥75% Improvement, subjects (%) (Week 40, 25 mg QD, N=43): (48.8%)
PASI ≥90% Improvement, subjects (%) (Week 40, 25 mg QD, N=43): (32.6%)
PASI 100% Improvement, subjects (%) (Week 40, 50 mg QD, N=43): (20.9%)
PASI ≥75% Improvement, subjects (%) (Week 40, 50 mg QD, N=43): (67.4%)
PASI ≥90% Improvement, subjects (%) (Week 40, 50 mg QD, N=43): (46.5%)
PASI 100% Improvement, subjects (%) (Week 40, 100 mg BID, N=42): (35.7%)
PASI ≥75% Improvement, subjects (%) (Week 40, 100 mg BID, N=42): (78.6%)
PASI ≥90% Improvement, subjects (%) (Week 40, 100 mg BID, N=42): (64.3%)
PASI 100% Improvement, subjects (%) (Week 40, 100 mg QD, N=43): (25.6%)
PASI ≥75% Improvement, subjects (%) (Week 40, 100 mg QD, N=43): (69.8%)
PASI ≥90% Improvement, subjects (%) (Week 40, 100 mg QD, N=43): (55.8%)
PASI 100% Improvement, subjects (%) [5]: (28.6%)
PASI ≥75% Improvement, subjects (%) [5]: (60.0%)
PASI ≥90% Improvement, subjects (%) [5]: (45.7%)
PASI 100% Improvement, subjects (%) (Week 52, 25 mg BID, N=41): (17.1%)
PASI ≥75% Improvement, subjects (%) (Week 52, 25 mg BID, N=41): (58.5%)
PASI ≥90% Improvement, subjects (%) (Week 52, 25 mg BID, N=41): (36.6%)
PASI 100% Improvement, subjects (%) (Week 52, 25 mg QD, N=43): (14.0%)
PASI ≥75% Improvement, subjects (%) (Week 52, 25 mg QD, N=43): (48.8%)
PASI ≥90% Improvement, subjects (%) (Week 52, 25 mg QD, N=43): (27.9%)
PASI 100% Improvement, subjects (%) (Week 52, 50 mg QD, N=43): (20.9%)
PASI ≥75% Improvement, subjects (%) (Week 52, 50 mg QD, N=43): (69.8%)
PASI ≥90% Improvement, subjects (%) (Week 52, 50 mg QD, N=43): (41.9%)
PASI 100% Improvement, subjects (%) (Week 52, 100 mg BID, N=42): (40.5%)
PASI ≥75% Improvement, subjects (%) (Week 52, 100 mg BID, N=42): (76.2%)
PASI 100% Improvement, subjects (%) (Week 52, 100 mg QD, N=43): (25.6%)
PASI ≥75% Improvement, subjects (%) (Week 52, 100 mg QD, N=43): (65.1%)
PASI ≥90% Improvement, subjects (%) (Week 52, 100 mg QD, N=43): (51.2%)
PASI 100% Improvement, subjects (%) [6]: (34.3%)
PASI ≥75% Improvement, subjects (%) [6]: (65.7%)
PASI ≥90% Improvement, subjects (%) [6]: (57.1%)
PASI and IGA response rates (from Week 16 to Week 52): generally maintained
